Source: the NIST ThermoML archive (doi:10.1016/j.fluid.2015.03.048)

How the values were obtained:
[1] = Liquid; for viscosity: 100 kPa, Capillary tube (Ostwald / Ubbelohde) method; for mass density: 101.33 kPa, Pycnometric method
[2] = xn = mol fraction of the nth substance listed; conditions: 303.15 K, 100 kPa, Liquid; for viscosity: Capillary tube (Ostwald / Ubbelohde) method; for excess molar volume: Direct dilatometry; for speed of sound: Frequency=3 MHz, Sing-around technique in a fixed-path interferometer; for mass density: Pycnometric method

Clc1ccc(Cl)c(Cl)c1 [1,2,4-trichlorobenzene]
[1], 303.15 K
Conditions	mass density [kg/m3]	viscosity [mPa·s]
–	1442.12	1.611

Clc1ccccc1Cl [1,2-dichlorobenzene]
[1], 303.15 K
Conditions	mass density [kg/m3]	viscosity [mPa·s]
–	1299.2	1.301

Clc1cccc(Cl)c1 [1,3-dichlorobenzene]
[1], 303.15 K
Conditions	mass density [kg/m3]	viscosity [mPa·s]
–	1277.16	1.023

Cc1ccccc1Cl [2-chlorotoluene]
[1], 303.15 K
Conditions	mass density [kg/m3]	viscosity [mPa·s]
–	1072.82	0.884

Cc1ccccc1[N+](=O)[O-] [2-nitrotoluene]
[1], 303.15 K
Conditions	mass density [kg/m3]	viscosity [mPa·s]
–	1153.24	1.908

Cc1ccccc1[N+](=O)[O-] [2-nitrotoluene] + CC(=O)N(C)C
[2]
Conditions	excess molar volume [m3/mol]	mass density [kg/m3]	speed of sound [m/s]	viscosity [mPa·s]
x2 = 0.0824	–	1135.81	2046	–
x2 = 0.1025	1.4e-08	–	–	1.905
x2 = 0.124	–	1126.98	2006	–
x2 = 0.1501	–	1121.45	1978	–
x2 = 0.1527	2e-08	–	–	1.877
x2 = 0.1784	–	1115.46	1956	–
x2 = 0.1835	2.5e-08	–	–	1.857
x2 = 0.2165	2.8e-08	–	–	1.835
x2 = 0.2318	–	1104.13	1897	–
x2 = 0.2579	–	1098.58	1874	–
x2 = 0.2775	3.5e-08	–	–	1.788
x2 = 0.3067	4e-08	–	–	1.763
x2 = 0.3103	–	1087.46	1817	–
x2 = 0.3637	–	1076.12	1773	–
x2 = 0.3641	4.7e-08	–	–	1.715
x2 = 0.4133	–	1065.58	1734	–
x2 = 0.4211	5.3e-08	–	–	1.663
x2 = 0.466	–	1054.4	1696	–
x2 = 0.4727	5.8e-08	–	–	1.613
x2 = 0.5262	6e-08	–	–	1.559
x2 = 0.5465	–	1037.36	1650	–
x2 = 0.6053	5.8e-08	–	–	1.474
x2 = 0.6694	–	1011.4	1592	–
x2 = 0.7204	4.5e-08	–	–	1.336
x2 = 0.7773	–	988.58	1547	–
x2 = 0.8162	3.2e-08	–	–	1.203
x2 = 0.8701	–	968.9	1506	–
x2 = 0.895	2e-08	–	–	1.074
x2 = 0.9584	–	950.18	1463	–
x2 = 0.967	7e-09	–	–	0.937

Cc1cccc(Cl)c1 [3-chlorotoluene]
[1]
Conditions	mass density [kg/m3]	viscosity [mPa·s]
293.15 K	1072.15	–
303.15 K	–	0.782

Cc1cccc(Cl)c1 [3-chlorotoluene] + CC(=O)N(C)C
[2]
Conditions	excess molar volume [m3/mol]	mass density [kg/m3]	speed of sound [m/s]	viscosity [mPa·s]
x2 = 0.0671	–	1063.49	1298	–
x2 = 0.0838	-1e-08	–	–	0.783
x2 = 0.1003	–	1059.19	1307	–
x2 = 0.1242	-1.4e-08	–	–	0.786
x2 = 0.1481	–	1053.01	1317	–
x2 = 0.1735	–	1049.73	1322	–
x2 = 0.1811	-2e-08	–	–	0.789
x2 = 0.2107	-2.3e-08	–	–	0.805
x2 = 0.2255	–	1042.98	1333	–
x2 = 0.2658	–	1037.75	1343	–
x2 = 0.2702	-2.7e-08	–	–	0.811
x2 = 0.3152	-3e-08	–	–	0.817
x2 = 0.3343	–	1028.85	1356	–
x2 = 0.3595	–	1025.57	1362	–
x2 = 0.3897	-3.5e-08	–	–	0.823
x2 = 0.4165	-3.6e-08	–	–	0.828
x2 = 0.4436	–	1014.58	1378	–
x2 = 0.4865	–	1008.96	1385	–
x2 = 0.5035	-3.7e-08	–	–	0.832
x2 = 0.5465	-3.6e-08	–	–	0.837
x2 = 0.5673	–	998.38	1399	–
x2 = 0.6251	-3.4e-08	–	–	0.841
x2 = 0.6638	–	985.69	1412	–
x2 = 0.7042	–	980.38	1416	–
x2 = 0.7152	-2.8e-08	–	–	0.846
x2 = 0.7517	-2.5e-08	–	–	0.85
x2 = 0.7822	–	970.1	1424	–
x2 = 0.8204	-1.9e-08	–	–	0.855
x2 = 0.9182	–	952.18	1440	–
x2 = 0.9345	-9e-09	–	–	0.86

Cc1cccc([N+](=O)[O-])c1 [3-nitrotoluene]
[1], 303.15 K
Conditions	mass density [kg/m3]	viscosity [mPa·s]
–	1147.67	1.775

Cc1cccc([N+](=O)[O-])c1 [3-nitrotoluene] + CC(=O)N(C)C
[2]
Conditions	excess molar volume [m3/mol]	mass density [kg/m3]	speed of sound [m/s]	viscosity [mPa·s]
x2 = 0.0678	–	1133.63	2077	–
x2 = 0.0851	1.8e-08	–	–	1.76
x2 = 0.1256	–	1121.68	2039	–
x2 = 0.1552	3e-08	–	–	1.752
x2 = 0.1998	–	1106.36	1958	–
x2 = 0.242	4.2e-08	–	–	1.71
x2 = 0.2449	–	1097.04	1906	–
x2 = 0.291	–	1087.34	1857	–
x2 = 0.2931	4.9e-08	–	–	1.686
x2 = 0.3451	5.4e-08	–	–	1.646
x2 = 0.3485	–	1075.63	1802	–
x2 = 0.395	–	1066.03	1763	–
x2 = 0.4062	5.9e-08	–	–	1.603
x2 = 0.455	6.2e-08	–	–	1.568
x2 = 0.4577	–	1053.07	1729	–
x2 = 0.4919	–	1046.01	1699	–
x2 = 0.5191	6.5e-08	–	–	1.519
x2 = 0.5429	–	1035.49	1676	–
x2 = 0.5532	6.6e-08	–	–	1.492
x2 = 0.5935	–	1025.05	1656	–
x2 = 0.603	6.6e-08	–	–	1.451
x2 = 0.6512	6.5e-08	–	–	1.408
x2 = 0.6596	–	1011.39	1632	–
x2 = 0.708	–	1001.42	1616	–
x2 = 0.7125	6.3e-08	–	–	1.348
x2 = 0.7561	5.9e-08	–	–	1.3
x2 = 0.7751	–	987.57	1589	–
x2 = 0.8151	5.1e-08	–	–	1.224
x2 = 0.9654	–	948.44	1473	–
x2 = 0.9727	1.2e-08	–	–	0.935

Cc1ccc(Cl)cc1 [4-chlorotoluene]
[1]
Conditions	mass density [kg/m3]	viscosity [mPa·s]
298.15 K	1065.14	–
303.15 K	–	0.902

Cc1ccc(Cl)cc1 [4-chlorotoluene] + CC(=O)N(C)C
[2]
Conditions	excess molar volume [m3/mol]	mass density [kg/m3]	speed of sound [m/s]	viscosity [mPa·s]
x2 = 0.0699	–	1056.58	1286	–
x2 = 0.0876	-6e-09	–	–	0.897
x2 = 0.0969	–	1053.3	1294	–
x2 = 0.1205	-1e-08	–	–	0.895
x2 = 0.1267	–	1049.63	1303	–
x2 = 0.1564	-1.2e-08	–	–	0.893
x2 = 0.1767	–	1043.58	1317	–
x2 = 0.2099	–	1039.44	1326	–
x2 = 0.2145	-1.6e-08	–	–	0.89
x2 = 0.2522	–	1034.25	1339	–
x2 = 0.2534	-1.9e-08	–	–	0.888
x2 = 0.3011	-2.2e-08	–	–	0.886
x2 = 0.3187	–	1026.08	1359	–
x2 = 0.374	-2.6e-08	–	–	0.884
x2 = 0.4342	–	1011.83	1385	–
x2 = 0.4664	–	1007.85	1392	–
x2 = 0.4933	–	1004.51	1397	–
x2 = 0.495	-2.9e-08	–	–	0.882
x2 = 0.5275	-2.9e-08	–	–	0.88
x2 = 0.5443	–	998.18	1403	–
x2 = 0.5543	-2.8e-08	–	–	0.879
x2 = 0.6041	-2.7e-08	–	–	0.878
x2 = 0.6513	–	984.88	1415	–
x2 = 0.7047	-2.2e-08	–	–	0.876
x2 = 0.7148	–	976.97	1420	–
x2 = 0.762	-1.8e-08	–	–	0.874
x2 = 0.7858	–	968.12	1424	–
x2 = 0.8241	-1.4e-08	–	–	0.872
x2 = 0.8524	–	959.81	1425	–
x2 = 0.8806	-1e-08	–	–	0.87

CC(=O)N(C)C [N,N-dimethylethanamide]
[1], 303.15 K
Conditions	mass density [kg/m3]	viscosity [mPa·s]
–	941.35	0.865
